Reference: US4876284A, “1-alkyl-2-aminotetralin derivatives” (Per Arvid Emil Carlsson, priority 1981, dated 1989)
Entries after “also recorded” stand apart in the source; their conditions may differ.

Key:
[1] = system: central DA-receptor (pre- and/or postsynaptic); assay: Rat-brain in-vivo tyrosine hydroxylation: Dopa accumulation after NSD 1015 in reserpine-pretreated rats; conditions: for Dopa-accumulation; ED50, Limbic / Dopa-accumulation; ED50, Striatum: half-maximal decrease in Dopa level
Procedure: The compounds under evaluation were tested biochemically for central DA-receptor (pre- and/or postsynaptic) stimulating activity. The concept of this biochemical screening method is that a DA-receptor agonist will stimulate the receptor and through regulatory feedback systems effect a decline in tyrosine hydroxylase activity and thus a subsequent reduction in the synthesis rate for DA in the presynaptic neuron. Dopa formation, as determined after in-vivo inhibition of the aromatic L-amino acid decarboxylase with NSD 1015 (3-hydroxybenzyl-hydrazine hydrochloride), is taken as an indirect measure of DA synthesis rate.
Rats (150-300 g) pretreated with reserpine were given the compounds under evaluation. Gross behavioural observations (changes in motility, stereotypies etc.) were made in order to evaluate possible postsynaptic dopamine receptor activity. subsequent administration of NSD 1015, decapitation, brain dissection [corpora striata, limbic fore-brain and rest of the hemispheral parts (cortex)]homogenization, centrifugation, ion-exchange chromatography and spectro-fluorimetric measurements (all as described in detail by Wikstrom et al., in J. Med. Chem. 21, 864-867, 1978 and references cited therein), gave the actual Dopa levels.
Several doses (n=4-6) were tested in order to obtain dose-response curves for each compound and brain area. The dose of a compound producing a half-maximal decrease in the Dopa level in the rat brain part was then estimated. These values (ED50) are presented in Table I. (Simultaneous determination of the 5-HTP levels was also performed utilizing the same paradigm.)
^b Rats pretreated with reserpine (10 mg/kg i.p.; 18 h) were given th
compounds under evaluation. Fortyfive minutes later they were injected
with NSD 1015 (100 mg/kg i.p.) and after a further 30 min they were
decapitated, the brains rapidly dissected and taken for determination of
the Dopa and 5HTP levels in different areas of the brain. The dose of a
compound producing a halfmaximal decrease (ED50) in the Dopa level i
the rat brain part was then estimated from doseresponse curves comprising
4-6 dose levels. (For further details see the text and references).

[2] = system: postsynaptic DA receptors; assay: Antagonism of the reserpine plus α-methyl-para-tyrosine-induced immobility (neuroleptic syndrome) in rats; motor activity; conditions: for Motor activity: 10 mg/kg s.c., reserpine 10 mg/kg + α-methyl-para-tyrosine 250 mg/kg i.p., means ± s.e.m.
DA autoreceptors = assay: Spontaneous locomotor activity in non-pretreated rats; type: in vivo, rat
Procedure: Untreated animals exposed to a new environment display an initial high motor activity which then gradually declines over a period of time. Administration of DA-receptor agonists (e.g. apomorphine) in doses where preferential autoreceptor stimulation is likely to occur, causes a depression of the spontaneous motility mentioned above, considered to be due to the DA autoreceptor-medicated attenuation of central DA transmission.
Rats (150-300 g) were injected subcutaneously with compound 2,5-OH-DPAT or apomorphine and after 5 minutes they were individually placed in motility boxes ("M/P 40 Fc Electronic Motility Meter". Motron Products, Stockholm) and the motor activity (0-30 min) was quantified. […] These findings are in congruence with the results obtained with the selective DA-autoreceptor agonist 3-PPP [S. Hjorth t al., Life Sciences, 28, 1225 (1981)] but in sharp contrast to the results obtained with 5-OH-DPAT and apomorphine (Table III).
Non-pretreated rats were given compound -2 (0.0625-16.0 mg/kg),
5OH--2-(di-n-propylamino) tetralin (5OH--DPAT; 0.0125-0.05 mg/kg,
apomorphine (0.1-1.0 mg/kg) or saline subcutaneously. Five minutes later
they were placed individually into motility meters and the locomotor

brain DA synthesis rate = assay: Formation of Dopa in rat brain regions (non-pretreated rats, NSD 1015); type: in vivo; set-up: formation of Dopa, Limbic forebrain / formation of Dopa, Striatum / formation of Dopa, Diencephalon / formation of Dopa, Brain-stem: unit not given here; conditions: for formation of Dopa, Brain-stem / formation of Dopa, Diencephalon / formation of Dopa, Hemispheral (cortical) parts / formation of Dopa, Limbic forebrain / formation of Dopa, Striatum: mean ± sem
Procedure: (§1) Immediately thereafter the animals were removed from the boxes. Part of
(§2) the animals were injected with NSD 1015 (100 mg/kg i.p.) and after a
(§3) further 30 min they were killed, the brains rapidly dissected and taken
(§4) for determination of the Dopa and 5HTP levels in different areas of the […]

[3] = system: brain 5-HT synthesis rate; assay: Formation of 5-hydroxytryptophan in rat brain regions (non-pretreated rats, NSD 1015); type: in vivo; set-up: formation of 5-hydroxytryptophan, Limbic forebrain / formation of 5-hydroxytryptophan, Striatum / formation of 5-hydroxytryptophan, Diencephalon / formation of 5-hydroxytryptophan, Brain-stem: unit not given here; conditions: for formation of 5-hydroxytryptophan, Brain-stem / formation of 5-hydroxytryptophan, Diencephalon / formation of 5-hydroxytryptophan, Hemispheral (cortical) parts / formation of 5-hydroxytryptophan, Limbic forebrain / formation of 5-hydroxytryptophan, Striatum: mean ± sem
Procedure: as §1, §2, §3, §4

[4] = limbic forebrain, reserpine-pretreated rats, s.c.
[5] = striatum, reserpine-pretreated rats, s.c.
[6] = reserpine and α-methyl-para-tyrosine pretreated rats

CCCN1CCCC(c2cccc(O)c2)C1 (stereo not drawn) [Compound 3-PPP, 3-(3-hydroxyphenyl)-N-n-propylpiperidine]
Dopa-accumulation; ED50, Limbic [1, 4]: 3.6 μmol/kg s.c.
Dopa-accumulation; ED50, Striatum [1, 5]: 3.6 μmol/kg s.c.
Motor activity [2]: 51 ± 19 counts 0-60 min
antagonism of the reserpine-induced syndrome / behaviour elicited [2, 6]: inability of compound 2 to antagonize the reserpine-induced syndrome is shared by the selective Da-autoreceptor agonist 3-PPP

Br.CCCN(CCC)[C@H]1CCc2c(O)cccc2[C@H]1C (relative stereo) [Compound 2, cis-5-Hydroxy-1-methyl-2-(di-n-propylamino) tetralin hydrobromid]
Dopa-accumulation; ED50, Limbic [1, 4]: 0.67 μmol/kg s.c.
Dopa-accumulation; ED50, Striatum [1, 5]: 0.80 μmol/kg s.c.
potency relative to 3-PPP (times more potent) ([1]; versus 3-PPP, Dopa accumulation): approximately 5 times
comparative potency, in words ([1]; versus trans-1-CH3-5-OH-DPAT, 5-OH-DPAT, apomorphine, Dopa accumulation): equipotent to trans-1-CH3 -5-OH-DPAT; also recorded: less potent than 5-OH-DPAT; also recorded: of the same order of potency as apomorphine
Locomotor activity (DA autoreceptors; 0.0625 mg/kg s.c., non-pretreated rats): 146 ± 4 counts 0.30 min
Locomotor activity (DA autoreceptors; 0.25 mg/kg s.c., non-pretreated rats): 117 ± 11 counts 0.30 min
Locomotor activity (DA autoreceptors; 1.0 mg/kg s.c., non-pretreated rats): 82 ± 8 counts 0.30 min
Locomotor activity (DA autoreceptors; 4.0 mg/kg s.c., non-pretreated rats): 62 ± 5 counts 0.30 min
Locomotor activity (DA autoreceptors; 16.0 mg/kg s.c., non-pretreated rats): 63 ± 9 counts 0.30 min
maximal decrease of the initial high motor activity from control values (DA autoreceptors; at about 4 mg/kg s.c., 0-30 min): 70%
effect on locomotor activity, in words (DA autoreceptors; non-pretreated rats, s.c.): clear and significant dose-dependent decrease of the initial high motor activity; also recorded: No locomotor stimulation is ever seen
dose at which the maximal effect on motor activity is attained (DA autoreceptors; s.c., 0-30 min): about 4 mg/kg
formation of Dopa, Brain-stem (brain DA synthesis rate; 0.0625 mg/kg s.c.): 177 ± 10
formation of Dopa, Diencephalon (brain DA synthesis rate; 0.0625 mg/kg s.c.): 148 ± 5
formation of Dopa, Hemispheral (cortical) parts (brain DA synthesis rate; 0.0625 mg/kg s.c.): 66 ± 2
formation of Dopa, Limbic forebrain (brain DA synthesis rate; 0.0625 mg/kg s.c.): 114 ± 6
formation of Dopa, Striatum (brain DA synthesis rate; 0.0625 mg/kg s.c.): 65 ± 4
formation of Dopa, Brain-stem (brain DA synthesis rate; 0.25 mg/kg s.c.): 170 ± 6
formation of Dopa, Diencephalon (brain DA synthesis rate; 0.25 mg/kg s.c.): 144 ± 2
formation of Dopa, Hemispheral (cortical) parts (brain DA synthesis rate; 0.25 mg/kg s.c.): 63 ± 2
formation of Dopa, Limbic forebrain (brain DA synthesis rate; 0.25 mg/kg s.c.): 116 ± 3
formation of Dopa, Striatum (brain DA synthesis rate; 0.25 mg/kg s.c.): 71 ± 5
formation of Dopa, Brain-stem (brain DA synthesis rate; 1.0 mg/kg s.c.): 167 ± 8
formation of Dopa, Diencephalon (brain DA synthesis rate; 1.0 mg/kg s.c.): 134 ± 7
formation of Dopa, Hemispheral (cortical) parts (brain DA synthesis rate; 1.0 mg/kg s.c.): 60 ± 1
formation of Dopa, Limbic forebrain (brain DA synthesis rate; 1.0 mg/kg s.c.): 107 ± 5
formation of Dopa, Striatum (brain DA synthesis rate; 1.0 mg/kg s.c.): 75 ± 6
formation of Dopa, Brain-stem (brain DA synthesis rate; 4.0 mg/kg s.c.): 170 ± 5
formation of Dopa, Diencephalon (brain DA synthesis rate; 4.0 mg/kg s.c.): 137 ± 3
formation of Dopa, Hemispheral (cortical) parts (brain DA synthesis rate; 4.0 mg/kg s.c.): 59 ± 2
formation of Dopa, Limbic forebrain (brain DA synthesis rate; 4.0 mg/kg s.c.): 113 ± 3
formation of Dopa, Striatum (brain DA synthesis rate; 4.0 mg/kg s.c.): 72 ± 4
formation of Dopa, Brain-stem (brain DA synthesis rate; 16.0 mg/kg s.c.): 170 ± 8
formation of Dopa, Diencephalon (brain DA synthesis rate; 16.0 mg/kg s.c.): 137 ± 5
formation of Dopa, Hemispheral (cortical) parts (brain DA synthesis rate; 16.0 mg/kg s.c.): 59 ± 2
formation of Dopa, Limbic forebrain (brain DA synthesis rate; 16.0 mg/kg s.c.): 108 ± 5
formation of Dopa, Striatum (brain DA synthesis rate; 16.0 mg/kg s.c.): 73 ± 4
effect on brain DA synthesis rate, in words (brain DA synthesis rate; non-pretreated rats, s.c.): significant decrease in rate brain DA synthesis rate; also recorded: marked difference in response between the limbic forebrain and the striatal structures
formation of 5-hydroxytryptophan, Brain-stem ([3]; 0.0625 mg/kg s.c.): 98 ± 4
formation of 5-hydroxytryptophan, Diencephalon ([3]; 0.0625 mg/kg s.c.): 196 ± 8
formation of 5-hydroxytryptophan, Hemispheral (cortical) parts ([3]; 0.0625 mg/kg s.c.): 40 ± 3
formation of 5-hydroxytryptophan, Limbic forebrain ([3]; 0.0625 mg/kg s.c.): 314 ± 15
formation of 5-hydroxytryptophan, Striatum ([3]; 0.0625 mg/kg s.c.): 458 ± 17
formation of 5-hydroxytryptophan, Brain-stem ([3]; 0.25 mg/kg s.c.): 96 ± 11
formation of 5-hydroxytryptophan, Diencephalon ([3]; 0.25 mg/kg s.c.): 170 ± 9
formation of 5-hydroxytryptophan, Hemispheral (cortical) parts ([3]; 0.25 mg/kg s.c.): 46 ± 2
formation of 5-hydroxytryptophan, Limbic forebrain ([3]; 0.25 mg/kg s.c.): 305 ± 14
formation of 5-hydroxytryptophan, Striatum ([3]; 0.25 mg/kg s.c.): 448 ± 26
formation of 5-hydroxytryptophan, Brain-stem ([3]; 1.0 mg/kg s.c.): 96 ± 7
formation of 5-hydroxytryptophan, Diencephalon ([3]; 1.0 mg/kg s.c.): 170 ± 11
formation of 5-hydroxytryptophan, Hemispheral (cortical) parts ([3]; 1.0 mg/kg s.c.): 43 ± 3
formation of 5-hydroxytryptophan, Limbic forebrain ([3]; 1.0 mg/kg s.c.): 291 ± 9
formation of 5-hydroxytryptophan, Striatum ([3]; 1.0 mg/kg s.c.): 420 ± 30
formation of 5-hydroxytryptophan, Brain-stem ([3]; 4.0 mg/kg s.c.): 111 ± 8
formation of 5-hydroxytryptophan, Diencephalon ([3]; 4.0 mg/kg s.c.): 176 ± 10
formation of 5-hydroxytryptophan, Hemispheral (cortical) parts ([3]; 4.0 mg/kg s.c.): 47 ± 2
formation of 5-hydroxytryptophan, Limbic forebrain ([3]; 4.0 mg/kg s.c.): 267 ± 6
formation of 5-hydroxytryptophan, Striatum ([3]; 4.0 mg/kg s.c.): 479 ± 9
formation of 5-hydroxytryptophan, Brain-stem ([3]; 16.0 mg/kg s.c.): 118 ± 4
formation of 5-hydroxytryptophan, Diencephalon ([3]; 16.0 mg/kg s.c.): 214 ± 13
formation of 5-hydroxytryptophan, Hemispheral (cortical) parts ([3]; 16.0 mg/kg s.c.): 48 ± 3
formation of 5-hydroxytryptophan, Limbic forebrain ([3]; 16.0 mg/kg s.c.): 272 ± 20
formation of 5-hydroxytryptophan, Striatum ([3]; 16.0 mg/kg s.c.): 478 ± 10
effect on brain 5-HT synthesis rate, in words ([3]; non-pretreated rats, s.c.): without any concomitant change in brain 5-HT synthesis rate
Motor activity [2]: 52 ± 5 counts 0-60 min
motor response / postsynaptic DA-receptor stimulatory effects ([2]; comparative study, Table II, s.c.): failed to elicit a motor response that differed more than slightly from control values
antagonism of the reserpine-induced syndrome / behaviour elicited [2, 6]: inability of compound 2 to antagonize the reserpine-induced syndrome
postsynaptic DA-receptor stimulation [2, 6]: compound 2 is not

CCCNC1CCc2c(O)cccc2C1(C)C (stereo not drawn) [1,1-di-CH35-OHPAT, 1,1di-CH35-OH2-(n-propylamino)tetralin]
Dopa-accumulation; ED50, Limbic (class symbol) [1, 4]: I (Inactive. ED50 > 45 μmol/kg.)
biochemical activity (Dopa accumulation), in words ([1]; reserpine-pretreated rats, inactive even at 45 μmol/kg): completely inactive
Dopa-accumulation; ED50, Striatum (class symbol) [1, 5]: I (Inactive. ED50 > 45 μmol/kg.)
